Experimental data taken from US20240398989A1, “METHODS AND COMPOSITIONS FOR DIAGNOSIS AND TREATMENT OF METABOLIC DISORDERS” (The Broad Institute, Inc., priority 2021, published 2024).

Test system: primary human hepatocytes (PHH)
Test: LipocyteProfiler of drug-treated primary human hepatocytes
Assay type: cell-based
Settings: for appearance of the cytoskeleton, Golgi and plasma membrane (AGP Texture_AngularSecondMoment): 5 mM metformin for 24h vs control, p=9.96e-08
Experimental: Primary human hepatocytes (PHH) were purchased from BioIVT. Donor lot YNZ was used in this study. PHH were thawed and immediately resuspended in CP media (BioIVT) supplemented with torpedo antibiotic (BioIVT). Cell count and viability were assessed by trypan blue exclusion test prior to plating. […] Four hours after plating, media was replaced with fresh CP media. After 24 h, media was replaced with fresh CP media or CP media containing oleic acid (0.3 mM) or metformin (5 mM). Hepatocytes were incubated for an additional 24 h prior to processing. Human primary AMSCs and PHH were plated in 96-well CellCarrier plates (Perkinelmer #6005550). […] Primary human hepatocytes were stained after 48 h in culture, and 24h following treatment with oleic acid or metformin. On the respective day of the assay, cell culture media was removed and replaced by 0.5 μM Mitotracker staining solution (1 mM MitoTracker Deep Red stock (Invitrogen #M22426) diluted in culture media) to each well followed by 30 minutes incubation at 37° C.' protected from light. […] PFA was removed and cells were washed once with Hank's Balanced Salt Solution (1×), HBSS (Gibco #14025076). […] Finally, staining solution was removed and cells were washed three times with HBSS. Cells were imaged using a Opera Phenix High content screening system. […] Prior to processing, flat field illumination correction was performed using functions generated from the median intensity across each plate. Nuclei were identified using the DAPI stain and then expanded to identify whole cells using the Phalloidin/WGA and BODIPY stains. Regions of cytoplasm were then determined by removing the Nuclei from the Cell segmentations. Speckles of BODIPY staining were enhanced to assist in detection of small and large individual Lipid objects. For each object set measurements were collected representing size, shape, intensity, granularity, texture, colocalization and distance to neighbouring objects. After LipocyteProfiler (LP) feature extraction data was filtered by applying automated and manual quality control steps. […] Second, every field was assessed visually and fields that were corrupted by experimental induced technical artifacts were removed. Furthermore, blocklisted features (Way, Gregory (2019): Blocklist Features-Cell Profiler. figshare. […] After filtering data were normalised per plate using a robust scaling approach (Pedregosa et al. 2011) that subtracts the median from each variable and divides it by the interquartile range. Individual wells were aggregated for downstream analysis by cell depot and day of differentiation.

[1] = PHH metformin treatment (5 mM, 24h), t-test

CN(C)C(=N)N=C(N)N [metformin]
Nuclei_Intensity_IntegratedIntensityEdge_AGP t-statistics [1]: −8.2E+00
Nuclei_Intensity_IntegratedIntensityEdge_DNA t-statistics [1]: −1.8E+01
Nuclei_Intensity_IntegratedIntensityEdge_Mito t-statistics [1]: 5.3E+00
Nuclei_Intensity_IntegratedIntensity_DNA t-statistics [1]: −1.3E+01
Nuclei_Intensity_IntegratedIntensity_Lipid t-statistics [1]: −5.7E+00
Nuclei_Intensity_IntegratedIntensity_Mito t-statistics [1]: 7.3E+00
Nuclei_Intensity_LowerQuartileIntensity_AGP t-statistics [1]: −1.4E+01
Nuclei_Intensity_LowerQuartileIntensity_DNA t-statistics [1]: −1.9E+01
Nuclei_Intensity_LowerQuartileIntensity_Lipid t-statistics [1]: −5.4E+00
Nuclei_Intensity_LowerQuartileIntensity_Mito t-statistics [1]: 7.7E+00
Nuclei_Intensity_MADIntensity_AGP t-statistics [1]: −2.2E+01
Nuclei_Intensity_MADIntensity_DNA t-statistics [1]: 4.7E+00
Nuclei_Intensity_MADIntensity_Mito t-statistics [1]: 1.2E+01
Nuclei_Intensity_MassDisplacement_AGP t-statistics [1]: 1.9E+01
Nuclei_Intensity_MassDisplacement_DNA t-statistics [1]: 6.2E+01
Nuclei_Intensity_MassDisplacement_Lipid t-statistics [1]: 2.6E+01
Nuclei_Intensity_MassDisplacement_Mito t-statistics [1]: 1.2E+01
Nuclei_Intensity_MaxIntensityEdge_AGP t-statistics [1]: −8.0E+00
Nuclei_Intensity_MaxIntensityEdge_DNA t-statistics [1]: −1.3E+01
Nuclei_Intensity_MaxIntensityEdge_Mito t-statistics [1]: 3.3E+00
Nuclei_Intensity_MaxIntensity_AGP t-statistics [1]: −1.6E+01
Nuclei_Intensity_MaxIntensity_Mito t-statistics [1]: 3.5E+00
Nuclei_Intensity_MeanIntensityEdge_AGP t-statistics [1]: −8.2E+00
Nuclei_Intensity_MeanIntensityEdge_DNA t-statistics [1]: −1.6E+01
Nuclei_Intensity_MeanIntensityEdge_Mito t-statistics [1]: 5.2E+00
Nuclei_Intensity_MeanIntensity_AGP t-statistics [1]: −1.6E+01
Nuclei_Intensity_MeanIntensity_DNA t-statistics [1]: −9.5E+00
Nuclei_Intensity_MeanIntensity_Lipid t-statistics [1]: −4.6E+00
Nuclei_Intensity_MeanIntensity_Mito t-statistics [1]: 7.8E+00
Nuclei_Intensity_MedianIntensity_AGP t-statistics [1]: −1.7E+01
Nuclei_Intensity_MedianIntensity_DNA t-statistics [1]: −1.3E+01
Nuclei_Intensity_MedianIntensity_Lipid t-statistics [1]: −4.5E+00
Nuclei_Intensity_MedianIntensity_Mito t-statistics [1]: 8.9E+00
Nuclei_Intensity_MinIntensityEdge_AGP t-statistics [1]: −7.5E+00
Nuclei_Intensity_MinIntensityEdge_DNA t-statistics [1]: −1.6E+01
Nuclei_Intensity_MinIntensityEdge_Lipid t-statistics [1]: −8.5E+00
Nuclei_Intensity_MinIntensityEdge_Mito t-statistics [1]: 3.0E+00
Nuclei_Intensity_MinIntensity_AGP t-statistics [1]: −7.8E+00
Nuclei_Intensity_MinIntensity_DNA t-statistics [1]: −1.6E+01
Nuclei_Intensity_MinIntensity_Lipid t-statistics [1]: −8.6E+00
Nuclei_Intensity_MinIntensity_Mito t-statistics [1]: 4.5E+00
Nuclei_Intensity_StdIntensityEdge_AGP t-statistics [1]: −7.5E+00
Nuclei_Intensity_StdIntensityEdge_DNA t-statistics [1]: −1.0E+01
Nuclei_Intensity_StdIntensityEdge_Lipid t-statistics [1]: 6.3E+00
Nuclei_Intensity_StdIntensityEdge_Mito t-statistics [1]: 5.2E+00
Nuclei_Intensity_StdIntensity_AGP t-statistics [1]: −1.8E+01
Nuclei_Intensity_StdIntensity_DNA t-statistics [1]: 3.5E+00
Nuclei_Intensity_StdIntensity_Mito t-statistics [1]: 6.1E+00
Nuclei_Intensity_UpperQuartileIntensity_AGP t-statistics [1]: −1.8E+01
Nuclei_Intensity_UpperQuartileIntensity_DNA t-statistics [1]: −5.7E+00
Nuclei_Intensity_UpperQuartileIntensity_Lipid t-statistics [1]: −4.4E+00
Nuclei_Intensity_UpperQuartileIntensity_Mito t-statistics [1]: 8.5E+00
Nuclei_Location_CenterMassIntensity_Y_AGP t-statistics [1]: 4.1E+00
Nuclei_Location_CenterMassIntensity_Y_DNA t-statistics [1]: 4.2E+00
Nuclei_Location_CenterMassIntensity_Y_Lipid t-statistics [1]: 4.1E+00
Nuclei_Location_CenterMassIntensity_Y_Mito t-statistics [1]: 4.2E+00
Nuclei_Location_Center_Y t-statistics [1]: 4.2E+00
Nuclei_Location_MaxIntensity_Y_AGP t-statistics [1]: 4.1E+00
Nuclei_Location_MaxIntensity_Y_DNA t-statistics [1]: 4.2E+00
Nuclei_Location_MaxIntensity_Y_Lipid t-statistics [1]: 4.1E+00
Nuclei_Location_MaxIntensity_Y_Mito t-statistics [1]: 4.5E+00
Nuclei_Neighbors_AngleBetweenNeighbors_2 t-statistics [1]: −2.2E+01
Nuclei_Neighbors_FirstClosestDistance_2 t-statistics [1]: −3.5E+00
Nuclei_Neighbors_FirstClosestObjectNumber_2 t-statistics [1]: −1.2E+01
Nuclei_Neighbors_NumberOfNeighbors_2 t-statistics [1]: 1.9E+01
Nuclei_Neighbors_PercentTouching_2 t-statistics [1]: 2.0E+01
Nuclei_Neighbors_SecondClosestDistance_2 t-statistics [1]: 4.5E+00
Nuclei_Neighbors_SecondClosestObjectNumber_2 t-statistics [1]: −1.2E+01
Nuclei_Number_Object_Number t-statistics [1]: −1.2E+01
Nuclei_Radial Distribution_MeanFrac_Mito_3of4 t-statistics [1]: 2.6E+01
Nuclei_RadialDistribution_FracAtD_AGP_3of4 t-statistics [1]: −2.7E+01
Nuclei_RadialDistribution_FracAtD_DNA_2of4 t-statistics [1]: 3.0E+01
Nuclei_RadialDistribution_FracAtD_Lipid_1of4 t-statistics [1]: −1.2E+01
Nuclei_RadialDistribution_FracAtD_Mito_3of4 t-statistics [1]: 2.4E+01
Nuclei_RadialDistribution_MeanFrac_AGP_3of4 t-statistics [1]: −2.7E+01
Nuclei_RadialDistribution_MeanFrac_DNA_2of4 t-statistics [1]: 3.8E+01
Nuclei_RadialDistribution_MeanFrac_Lipid_2of4 t-statistics [1]: −7.9E+00
Nuclei_RadialDistribution_RadialCV_AGP_3of4 t-statistics [1]: 2.5E+01
Nuclei_RadialDistribution_RadialCV_DNA_3of4 t-statistics [1]: 9.7E+01
Nuclei_RadialDistribution_RadialCV_Lipid_3of4 t-statistics [1]: 2.2E+01
Nuclei_RadialDistribution_RadialCV_Mito_2of4 t-statistics [1]: 3.7E+01
Nuclei_Texture_AngularSecondMoment_AGP_10_02 t-statistics [1]: 1.2E+01
Nuclei_Texture_AngularSecondMoment_DNA_20_03 t-statistics [1]: 9.4E+00
Nuclei_Texture_AngularSecondMoment_Lipid_5_03 t-statistics [1]: 4.2E+00
Nuclei_Texture_AngularSecondMoment_Mito_5_02 t-statistics [1]: −1.8E+01
Nuclei_Texture_Contrast_AGP_10_03 t-statistics [1]: −1.8E+01
Nuclei_Texture_Contrast_DNA_5_01 t-statistics [1]: 5.8E+00
Nuclei_Texture_Contrast_Lipid_20_02 t-statistics [1]: 4.3E+00
Nuclei_Texture_Contrast_Mito_5_03 t-statistics [1]: 6.8E+00
Nuclei_Texture_Correlation_AGP_10_03 t-statistics [1]: 3.0E+01
Nuclei_Texture_Correlation_DNA_10_00 t-statistics [1]: −1.6E+01
Nuclei_Texture_Correlation_Lipid_5_03 t-statistics [1]: 2.3E+01
Nuclei_Texture_Correlation_Mito_5_02 t-statistics [1]: 1.5E+01
Nuclei_Texture_DifferenceEntropy_AGP_10_00 t-statistics [1]: −2.1E+01
Nuclei_Texture_DifferenceEntropy_DNA_10_03 t-statistics [1]: −8.0E+00
Nuclei_Texture_DifferenceEntropy_Lipid_20_01 t-statistics [1]: 8.2E+00
Nuclei_Texture_DifferenceEntropy_Mito_20_00 t-statistics [1]: 8.0E+00
Nuclei_Texture_DifferenceVariance_AGP_10_00 t-statistics [1]: 1.4E+01
Nuclei_Texture_DifferenceVariance_DNA_20_03 t-statistics [1]: 7.3E+00
Nuclei_Texture_DifferenceVariance_Lipid_20_00 t-statistics [1]: 5.6E+00
Nuclei_Texture_DifferenceVariance_Mito_10_00 t-statistics [1]: −8.1E+00
Nuclei_Texture_Entropy_AGP_5_00 t-statistics [1]: −1.7E+01
Nuclei_Texture_Entropy_DNA_10_03 t-statistics [1]: −7.7E+00
Nuclei_Texture_Entropy_Lipid_20_01 t-statistics [1]: 7.3E+00
Nuclei_Texture_Entropy_Mito_5_02 t-statistics [1]: 1.3E+01
Nuclei_Texture_InfoMeas1_AGP_10_03 t-statistics [1]: 2.6E+01
Nuclei_Texture_InfoMeas1_Lipid_20_03 t-statistics [1]: −8.6E+00
Nuclei_Texture_InfoMeas2_DNA_10_03 t-statistics [1]: −1.3E+01
Nuclei_Texture_InfoMeas2_Mito_5_01 t-statistics [1]: 1.3E+01
Nuclei_Texture_InverseDifferenceMoment_AGP_10_00 t-statistics [1]: 2.1E+01
Nuclei_Texture_InverseDifferenceMoment_DNA_20_03 t-statistics [1]: 1.5E+01
Nuclei_Texture_InverseDifferenceMoment_Lipid_20_00 t-statistics [1]: 7.5E+00
Nuclei_Texture_InverseDifferenceMoment_Mito_10_00 t-statistics [1]: −1.4E+01
Nuclei_Texture_SumAverage_AGP_10_00 t-statistics [1]: −1.8E+01
Nuclei_Texture_SumAverage_DNA_10_01 t-statistics [1]: −1.8E+01
Nuclei_Texture_SumAverage_Lipid_10_00 t-statistics [1]: −6.6E+00
Nuclei_Texture_SumAverage_Mito_20_00 t-statistics [1]: 8.5E+00
Nuclei_Texture_SumEntropy_AGP_5_00 t-statistics [1]: −1.9E+01
Nuclei_Texture_SumEntropy_DNA_10_03 t-statistics [1]: −7.8E+00
Nuclei_Texture_SumEntropy_Lipid_20_01 t-statistics [1]: 8.0E+00
Nuclei_Texture_SumEntropy_Mito_5_02 t-statistics [1]: 1.1E+01
Nuclei_Texture_SumVariance_AGP_10_03 t-statistics [1]: −1.7E+01
Nuclei_Texture_SumVariance_DNA_5_02 t-statistics [1]: 6.2E+00
Nuclei_Texture_SumVariance_Lipid_20_01 t-statistics [1]: 6.0E+00
Nuclei_Texture_SumVariance_Mito_5_02 t-statistics [1]: 7.3E+00
Nuclei_Texture_Variance_AGP_10_03 t-statistics [1]: −1.8E+01
Nuclei_Texture_Variance_DNA_5_00 t-statistics [1]: 5.8E+00
Nuclei_Texture_Variance_Lipid_20_00 t-statistics [1]: 4.7E+00
Nuclei_Texture_Variance_Mito_5_02 t-statistics [1]: 6.9E+00
BODIPY Texture Entropy (PHH, 5 mM metformin for 24h, p 6.98e-04): difference
mitochondrial membrane potential (Mito MeanIntensity) (PHH, 5 mM metformin for 24h, p 0.0104): increased
cell size (AreaShape MinorAxislength) (PHH, 5 mM metformin for 24h, p=3.11e-12): smaller
cell size (AreaShape Area) (PHH, 5 mM metformin for 24h, p=3.87e-11): smaller
lipid droplet number (LargeBODIPYObjects_Count) (PHH, 5 mM metformin for 24h, p=2.37e-07): reduced
lipid content (BODIPY MeanIntensity) (PHH, 5 mM metformin for 24h, p=6.11e-06): reduced
mitochondrial fusion (Mito Texture_angularSecondMoment, Mito Texture Entropy, Mito Texture_InfoMeas1) (PHH, 5 mM metformin for 24h, p=7.58e-05, p=6.66e-06, p=2.17e-12): increased
appearance of the cytoskeleton, Golgi and plasma membrane (AGP Texture_AngularSecondMoment) (PHH): less uniform
appearance of the cytoskeleton, Golgi and plasma membrane (AGP Texture_AngularSecondMoment) (PHH, listed as Metformin): reduced cytoskeletal randomness
